In paper PMC11725581, “Developing novel Lin28 inhibitors by computer aided drug design” (Cell Death Discovery, 2025):
“Also recorded” adds a separate entry of the source.

Legend:
Format in all cases: cell-based
TOV-112D cells = test: Cell proliferation (Incucyte), TOV-112D; conditions: Lin28a/Lin28b-positive
Text: (§1) To further evaluate whether the suppressive effects of Ln268 are specific to Lin28-positive cancer cells, we compared cell growth rates of DuNE (Lin28b-positive line) and Du145 (Lin28b-negative line), both of which are Lin28a-negative. DuNE has the same genomic background with Du145 except for the transduction of the SRRM4 gene. […] Furthermore, Ln268 had no impact on the cell growth of DuNE(KO) cells, in which the Lin28b gene was knocked out by CRISPR (Fig. 5C). […] We also tested several ovarian and endometrial cancer cell lines with different Lin28a and Lin28b expression profiles (Fig. 5E).

HEC1B cells = test: Cell proliferation (Incucyte), HEC1B; conditions: Lin28a/Lin28b-negative
Text: as §1

[1] = system: Lin28b-mediated SG formation in DuNE cells; test: Stress granule (SG) formation induced by ARS, confocal microscopy
Text: To assess whether Lin28 inhibitors can inhibit SG formation in cancer cells, we induced SGs in DuNE cells using ARS. These cells were co-treated with either vehicle, C1632, Ln15, or Ln268 (Fig. 6F). As a positive control, RNase was also included since it is known to prevent Lin28-mediated SG formation. Under vehicle treatment condition, Lin28b was primarily localized within SGs; however, in the presence of Lin28 inhibitors, its subcellular distribution became more diffuse, extending beyond SGs. SG formation involves a dynamic process in which initial smaller granules coalesce to form larger, mature SGs through phase separation (Fig. 6F).
Cells were fixed with 4% paraformaldehyde, treated in 0.25% Triton X-100 for 15 mins, and mounted with DAPI staining mount (Vector Labs; Burlingame, USA). Cell images were captured by confocal microscopy at 63X magnification (Zeiss; Germany).

DuNE spheroids = test: DuNE 3D spheroid growth (Incucyte)
Text: CSCs have characteristic tumorigenic, self-renewal, and differentiation properties. The self-renewal ability is hijacked by CSCs that makes them both tumorigenic and capable of sustaining long-term tumor growth, which can be evaluated by 3D spheroid and colony formation assays. We established a DuNE spheroid model in which DuNE cells formed 3D spheroids in 96-well plates (Figure S3). By integrating this 3D culture with the Incucyte live-cell imaging system, we quantified the sizes of the spheroid growth over 0–6 days to generate a spheroid growth curve. Using this model system, we treated the DuNE spheroids with increasing doses (0–100 μM) of C1632, Ln15, and Ln268 for 0–6 days. […] In addition, classic colony formation assays were used to measure the stemness in the DuNE model. Colony formation counts, which were ~50 under vehicle treatment after 14 days, decreased by 22% in C1632-treated plates, and by 75% and 96% in the Ln15 and Ln268 treated plates, respectively (Fig. 4D).
For a spheroid generation, 1000 cells/well were seeded in 96-well ULA round-bottomed plates (Corning, Amsterdam) using a multichannel pipette. 3D multicellular spheroids were spontaneously generated after 24 h culture. Plates were incubated for 6 days at 37 °C, 5% CO2, and 95% humidity. DuNE and Du145 cells were cultured in DMEM with 10% FBS. Fully automated image analysis of tumor spheroids was carried out with the Incucyte® S3 Live-Cell Analysis System. The size and shape of multicellular spheroids were analyzed by using the Incucyte® Spheroid Analysis Software Module.

DuNE cells = test: Drug-drug interaction (SynergyFinder) in DuNE cells; conditions: score higher than 10 = synergistic
Protocol: Fig. 6 Ln268 enhances stress inducers to inhibit cancer cell growth. A, B DuNE cells were transfected with GFP-tagged Lin28b together with either RFP-tagged G3BP1, YB-1, or DCP1. Cells were then challenged with ARS (A), cisplatin (CP) or etoposide (etop) (B) to induce a stress condition. Confocal microscope detected the subcellular localization of Lin28b. C, D Du145, DuNE and DuNE(KO) cells were treated with ARS (C), cisplatin (CP) or etoposide (etop) (D). Percentage of cells forming SGs was counted in five random fields from two replicate experiments. E DuNE and DuNE(KO) cells were treated with ARS, cisplatin or etoposide. Cell viability was measured by Incucyte. F DuNE cells were transfected with GFP-tagged Lin28b and treated with ARS together with C1632, Ln15, Ln268, or RNase. Confocal microscope detected SGs formation mediated by Lin28b. Fluorescence images were captured, and SGs sizes and numbers were calculated as shown. […] Drug interactions were calculated by SynergyFinder, with a synergy score higher than 10 representing synergistic relationship. […]
We subsequently investigated whether Ln268 could potentiate anticancer effects of stress inducers to block cancer cell growth in vitro. First, we determined the IC50 values of each inhibitor, which were then used to formulate drug-drug interactions of Ln268 with cisplatin, etoposide, or ARS (Figure S5). […]

O=c1[nH]c(Nc2ccc(F)cc2O)cs1 [Ln268]
effect on growth of TOV-112D cells (TOV-112D cells): suppressed the growth
effect on growth of HEC1B cells (HEC1B cells): no or minimal impacts
effect on aggregation of smaller granules (<20 pixels) into larger SGs (>50 pixels) [1]: the most suppressive effect
effect on DuNE spheroid growth (DuNE spheroids): strongest potency among all 13 candidate compounds; also recorded: efficiently blocked DuNE spheroid growth in a time-dependent manner
potency improvement over parent compound Ln15 (spheroid growth) (DuNE spheroids): ~ 2 fold
potency relative to C1632 (spheroid growth) (DuNE spheroids): approximately 10 fold
IC50 (DuNE spheroids; 0-100 μM, 0-6 days, read-out: concentration to achieve 50% spheroid growth inhibition): 10 µM
synergy score, Ln268 + cisplatin (DuNE cells): 19.39
synergy score, Ln268 + etoposide (DuNE cells): 12.77
